19 compounds from patent publication US7361658B2, “2-acylaminothiazole derivative or salt thereof” (Astellas Pharma Inc., priority 2003, dated 2008) can be followed below.

Like-named read-outs stand apart in the source and are kept apart here.

Assay [1] deals with T1, human c-mpl-Ba/F3 cells (Homo sapiens, UniProt P40238).
T1 construct: expressed in transfected cells; host or cells: Ba/F3 (murine pro-B cells) expressing human c-mpl
T1 sequence (P40238 26-635): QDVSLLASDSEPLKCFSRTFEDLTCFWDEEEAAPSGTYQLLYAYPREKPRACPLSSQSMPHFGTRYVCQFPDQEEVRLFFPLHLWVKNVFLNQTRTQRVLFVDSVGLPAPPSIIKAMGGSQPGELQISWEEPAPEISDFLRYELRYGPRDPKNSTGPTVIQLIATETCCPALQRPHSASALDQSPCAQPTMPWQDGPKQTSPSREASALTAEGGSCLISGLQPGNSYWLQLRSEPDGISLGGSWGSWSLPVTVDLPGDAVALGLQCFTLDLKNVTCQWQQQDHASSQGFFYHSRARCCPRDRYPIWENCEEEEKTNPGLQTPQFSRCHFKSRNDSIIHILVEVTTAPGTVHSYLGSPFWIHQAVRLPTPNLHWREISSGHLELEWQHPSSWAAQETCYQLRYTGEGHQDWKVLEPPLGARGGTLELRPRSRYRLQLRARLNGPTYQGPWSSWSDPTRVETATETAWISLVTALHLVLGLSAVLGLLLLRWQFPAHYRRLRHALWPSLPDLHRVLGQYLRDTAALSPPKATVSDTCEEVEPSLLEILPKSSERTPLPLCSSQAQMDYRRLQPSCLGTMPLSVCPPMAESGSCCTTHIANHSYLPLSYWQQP
Kind of assay: Human c-mpl-Ba/F3 cell growth test. Format: cell-based. To be noted: for Emax / Efficacy: maximum cell growth activity; for Emax: read-out: Efficacy. The procedure: (i) Human c-mpl-Ba/F3 Cell Growth Test
In a 96-well microplate, 2×10^5 cells/ml of human c-mpl-Ba/F3 cells were cultured at 37° C. in 10% fetal bovine serum-containing RPMI1640 medium (100 μl/well) containing each test compound at each concentration. After 24 hours from the start-up of culture, 10 μl/well of WST-1/1-methoxy PMS (cell counting kit, Dojin) was added. Immediately after addition and 2 hours after addition, absorbance of A450/A650 was measured with a microplate reader (Model 3350: Bio-Rad), and an increase in absorbance for 2 hours was defined as a growth activity of each test compound.
pot: Concentration of each test compound at which to accelerate cell growth by 30% of a maximum cell growth activity of compound A (compound A and rhTPO in rhTPO)
Efficacy: Maximum cell growth activity of each test compound when a maximum cell growth activity of compound A (compound A and rhTPO in rhTPO) is defined as 100%.
Compound A refers to a compound in Example 9 of the foregoing Patent Document 10.

In assay [2] the target is T1, human c-mpl-Ba/F3 cells. Kind of assay: Mouse oral administration test: human c-mpl-Ba/F3 cell growth activity of a plasma after oral administration. To be noted: male ICR mouse, plasma 2 h after administration, maximum activity of each test compound = 100%. It counts as in vivo. The procedure:
(iii) Mouse Oral Administration Test
3 mg/kg or 10 mg/kg (100 mg/kg in Comparative Compounds 1 to 3) of a test compound dissolved or suspended in a 0.5% methylcellulose aqueous solution was orally administered to a male ICR mouse. After 2 hours from administration, a blood was sampled from the subabdominal large vein using 1/10-volume 3.8% sodium citrate as an anticoagulant. Centrifugation was performed at 12,000 rpm for 3 minutes. The resulting plasma was heated at 56° C. for 30 minutes, and added to a system of the human c-mpl-Ba/F3 cell growth test described in (i) such that the final concentration of the plasma reached 0.3%, 1% or 3% (10% in Comparative Compounds 1 to 3) to measure a cell growth activity. The cell growth activity (%) of each plasma was measured when the maximum cell growth activity of each test compound was defined as 100%.

Where [3] appears, read: concentration at which cell growth is accelerated by 30% of the maximum cell growth activity of compound A, 24 h culture.
The mark [4] stands for this setting: maximum of compound A defined as 100%.
[5] abbreviates: 100 mg/kg p.o., dilution rate 10%.
Setting [6] is: concentration at which cell growth is accelerated by 30% of the maximum cell growth activity of rhTPO (applies to compound A and rhTPO).
Where [7] appears, read: maximum of rhTPO defined as 100% (applies to compound A and rhTPO).
Setting [8] is: 3 mg/kg p.o., dilution rate 0.3%.

On human c-mpl-Ba/F3 cells [1] (setting [3]), `O=C1NC(=S)S/C1=C\c1ccc(C(=O)Nc2nc(-c3ccc(Cl)c(Cl)c3)cs2)cc1` [Comparative Compound 1, reference compound] came in with a Pot of 4.4 nM. Further, on human c-mpl-Ba/F3 cells [1] (setting [4]), the Emax was determined as 101%. The Cell growth activity on human c-mpl-Ba/F3 cells [2] (setting [5]) was less than 10%.

In the case of `O=C(O)/C(Cl)=C/c1ccc(C(=O)Nc2nc(-c3ccc(Cl)c(Cl)c3)cs2)cc1` [Comparative Compound 2, reference compound], the Pot on human c-mpl-Ba/F3 cells [1] (setting [3]) is 2.1 nM. Further, the Emax on human c-mpl-Ba/F3 cells [1] (setting [4]) came to 96%. Besides, the Cell growth activity on human c-mpl-Ba/F3 cells [2] (setting [5]) is recorded as less than 10%.

Consider `Cc1sc(NC(=O)c2ccc(/C=C(\Cl)C(=O)O)cc2)nc1-c1cccc(C(F)(F)F)c1` [Comparative Compound 3, reference compound], for which, on human c-mpl-Ba/F3 cells [1] (setting [3]), the Pot is listed as 6.9 nM. In addition, the Emax at human c-mpl-Ba/F3 cells [1] (setting [4]) is 96%. The Cell growth activity at human c-mpl-Ba/F3 cells [2] (setting [5]) is reported as less than 10%.

Compound `COc1cc(C(=O)Nc2nc(-c3ccc(F)cc3)c(N3CCN(C4CCCCC4)CC3)s2)ccn1` [Comparative Compound 4, reference compound] returned a Pot at human c-mpl-Ba/F3 cells [1] (setting [3]) of 251 nM. The Emax at human c-mpl-Ba/F3 cells [1] (setting [4]) stood at 95%.

With `O=C(Nc1nc(-c2cc(Cl)cs2)c(N2CCN(C3CCCCC3)CC2)s1)c1ccc(OCCO)c(Cl)c1` [Compound A, reference compound], the Pot at human c-mpl-Ba/F3 cells [1] (setting [6]) is 10 nM. Also, at human c-mpl-Ba/F3 cells [1] (setting [7]), the Emax came out at 87%.

In the case of `CN(C)Cc1sc(NC(=O)c2cnc(N3CCC(C(=O)O)CC3)c(Cl)c2)nc1-c1cc(Cl)cs1` [Example 65, 1-(3-chloro-5-{[4-(4-chlorothiophen-2-yl)-5-(dimethylaminomethyl)thiazol-2-yl]carbamoyl}-2-pyridyl)piperidine-4-carboxylic acid], on human c-mpl-Ba/F3 cells [1] (setting [3]), the Pot stood at 4.3 nM. In addition, at human c-mpl-Ba/F3 cells [1] (setting [4]), the Emax came out at 114%. The Cell growth activity entry on human c-mpl-Ba/F3 cells [2] (3 mg/kg p.o., dilution rate 3%) is on record as “≧80%”.

For `O=C(Nc1nc(-c2cc(Cl)cs2)c(CN2CCCCCC2)s1)c1cnc(N2CCC(C(=O)O)CC2)c(Cl)c1` [Example 84, 1-(5-{[5-(azepan-1-ylmethyl)-4-(4-chlorothiophen-2-yl)thiazol-2-yl]carbamoyl}-3-chloro-2-pyridyl)piperidine-4-carboxylic acid], the Pot at human c-mpl-Ba/F3 cells [1] (setting [3]) was 4.2 nM. On human c-mpl-Ba/F3 cells [1] (setting [4]), the Emax was determined as 103%. For the same compound, the Cell growth activity entry at human c-mpl-Ba/F3 cells [2] (3 mg/kg p.o., dilution rate 1%) is given as “≧80%”.

With `O=C(Nc1nc(-c2cc(Cl)cs2)c(CN2CCCCCCC2)s1)c1cnc(N2CCC(C(=O)O)CC2)c(Cl)c1` [Example 85], at human c-mpl-Ba/F3 cells [1] (setting [3]), the Pot turned out to be 3.3 nM. The compound further registered an Efficacy on human c-mpl-Ba/F3 cells [1] (setting [4]) of 107%. Besides, on human c-mpl-Ba/F3 cells [2] (3 mg/kg p.o., dilution rate 1%), the Cell growth activity entry was “≧80%”.

In the case of `CN(Cc1sc(NC(=O)c2cnc(N3CCC(C(=O)O)CC3)c(Cl)c2)nc1-c1cc(Cl)cs1)C1CCCCC1` [Example 90, 1-{3-chloro-5-[(4-(4-chlorothiophen-2-yl)-5-{[cyclohexyl(methyl)amino]methyl}thiazol-2-yl)carbamoyl]-2-pyridyl}piperidine-4-carboxylic acid], the Pot on human c-mpl-Ba/F3 cells [1] (setting [3]) was 2.0 nM. In addition, the Emax on human c-mpl-Ba/F3 cells [1] (setting [4]) came out at 94%. Moreover, the Cell growth activity result at human c-mpl-Ba/F3 cells [2] (setting [8]) is given as “≧80%”.

`CN(Cc1sc(NC(=O)c2cnc(N3CCC(C(=O)O)CC3)c(Cl)c2)nc1-c1cc(Cl)cs1)C1CC1` [Example 101, 1-{3-chloro-5-[(4-(4-chlorothiophen-2-yl)-5-{[cyclopropyl(methyl)amino]methyl}thiazol-2-yl)carbamoyl]-2-pyridyl}piperidine-4-carboxylic acid]: the Pot on human c-mpl-Ba/F3 cells [1] (setting [3]) is listed as 3.1 nM. In addition, the Emax at human c-mpl-Ba/F3 cells [1] (setting [4]) stood at 108%. In addition, the Cell growth activity on human c-mpl-Ba/F3 cells [2] (3 mg/kg p.o., dilution rate 1%) amounted to 76%.

Consider `C[C@@H]1CCCN1Cc1sc(NC(=O)c2cnc(N3CCC(C(=O)O)CC3)c(Cl)c2)nc1-c1cc(Cl)cs1` [Example 107, 1-{3-chloro-5-[(4-(4-chlorothiophen-2-yl)-5-{[(2R)-2-methylpyrrolidin-1-yl]methyl}thiazol-2-yl)carbamoyl]-2-pyridyl}piperidine-4-carboxylic acid], for which the Pot at human c-mpl-Ba/F3 cells [1] (setting [3]) is 1.5 nM. In addition, the Emax on human c-mpl-Ba/F3 cells [1] (setting [4]) worked out at 112%.

Take `C[C@H]1CCN(Cc2sc(NC(=O)c3cnc(N4CCC(C(=O)O)CC4)c(Cl)c3)nc2-c2cc(Cl)cs2)C1` [Example 109, 1-{3-chloro-5-[(4-(4-chlorothiophen-2-yl)-5-{[(3S)-3-methylpyrrolidin-1-yl]methyl}thiazol-2-yl)carbamoyl]-2-pyridyl}piperidine-4-carboxylic acid]: the Pot at human c-mpl-Ba/F3 cells [1] (setting [3]) is reported as 3.9 nM. In addition, the Emax at human c-mpl-Ba/F3 cells [1] (setting [4]) was found to be 95%. At human c-mpl-Ba/F3 cells [2] (3 mg/kg p.o., dilution rate 1%), the Cell growth activity worked out at 59%.

For the compound `CO[C@@H](C)CN(C)Cc1sc(NC(=O)c2cnc(N3CCC(C(=O)O)CC3)c(Cl)c2)nc1-c1cc(Cl)cs1` [Example 111, 1-{3-chloro-5-[(4-(4-chlorothiophen-2-yl)-5-{[[(2S)-2-methoxypropyl](methyl)amino]methyl}thiazol-2-yl)carbamoyl]-2-pyridyl}piperidine-4-carboxylic acid], the Pot at human c-mpl-Ba/F3 cells [1] (setting [3]) was found to be 6.0 nM. Also, the Emax on human c-mpl-Ba/F3 cells [1] (setting [4]) is 87%.

Compound `CCCCN(C)Cc1sc(NC(=O)c2cnc(N3CCC(CO)CC3)c(Cl)c2)nc1-c1cc(Cl)cs1` [Example 150, N-[5-{[butyl(methyl)amino]methyl}-4-(4-chlorothiophen-2-yl)thiazol-2-yl]-5-chloro-6-[4-(hydroxymethyl)piperidino]nicotinamide] displayed a Pot at human c-mpl-Ba/F3 cells [1] (setting [3]) of 3.6 nM. Further, the Emax at human c-mpl-Ba/F3 cells [1] (setting [4]) turned out to be 102%. This compound also yielded a Cell growth activity at human c-mpl-Ba/F3 cells [2] (setting [8]) of 28%.

In the case of `C[C@@H]1CCCN1Cc1sc(NC(=O)c2cnc(N3CC(CC(=O)O)C3)c(Cl)c2)nc1-c1cc(Cl)cs1` [Example 222, (1-{3-chloro-5-[(4-(4-chlorothiophen-2-yl)-5-{[(2R)-2-methylpyrrolidin-1-yl]methyl}thiazol-2-yl)carbamoyl]-2-pyridyl}azetidin-3-yl)acetic acid], the Pot at human c-mpl-Ba/F3 cells [1] (setting [3]) was 4.4 nM. In addition, the Emax on human c-mpl-Ba/F3 cells [1] (setting [4]) amounted to 102%.

`C[C@@H]1CCCN1Cc1sc(NC(=O)c2cnc(N(C)CCCC(=O)O)c(Cl)c2)nc1-c1cc(Cl)cs1` [Example 226, 4-[{3-chloro-5-[(4-(4-chlorothiophen-2-yl)-5-{[(2R)-2-methylpyrrolidin-1-yl]methyl}thiazol-2-yl)carbamoyl]-2-pyridyl}(methyl)amino]butyric acid]: the Pot on human c-mpl-Ba/F3 cells [1] (setting [3]) came out at 4.6 nM. In addition, the Emax on human c-mpl-Ba/F3 cells [1] (setting [4]) was determined as 88%.

On human c-mpl-Ba/F3 cells [1] (setting [3]), `CC(C)N(C)Cc1sc(NC(=O)c2cnc(N(C)CCCC(=O)O)c(Cl)c2)nc1-c1cc(Cl)cs1` [Example 227, 4-[{3-chloro-5-[(4-(4-chlorothiophen-2-yl)-5-{[isopropyl(methyl)amino]methyl}thiazol-2-yl)carbamoyl]-2-pyridyl}(methyl)amino]butyric acid] showed a Pot of 3.2 nM. On human c-mpl-Ba/F3 cells [1] (setting [4]), the Emax was found to be 88%.

`C[C@H]1CCCN1Cc1sc(NC(=O)c2cnc(N3CCC(C(=O)O)CC3)c(F)c2)nc1-c1cc(Cl)cs1` [Example 314, 1-{5-[(4-(4-chlorothiophen-2-yl)-5-{[(2S)-2-methylpyrrolidin-1-yl]methyl}thiazol-2-yl)carbamoyl]-3-fluoro-2-pyridyl}piperidine-4-carboxylic acid] came in with a Cell growth activity at human c-mpl-Ba/F3 cells [2] (3 mg/kg p.o., dilution rate 3%) of 52%.

The compound “rhTPO: thrombopoietin (TPO), a c-Mpl ligand; a protein” gave a Pot with human c-mpl-Ba/F3 cells [1] (setting [6]) of 0.012 nM. This compound displayed an Efficacy with human c-mpl-Ba/F3 cells [1] (setting [7]) of 100%.
